Experimental data from US20150175599A1, “FAAH Inhibitors” (Ironwood Pharmaceuticals, Inc., priority 2010, published 2015).

What follows are compounds tested against T1, human FAAH-1 (Homo sapiens, UniProt O00519) (assay: Whole cell anandamide hydrolysis assay (HeLa clone 5c5 transfected with human FAAH-1)). Settings: HeLa clone 5c5 expressing human FAAH-1; read-out: human FAAH whole cell IC50.
T1 sequence (O00519 1-579): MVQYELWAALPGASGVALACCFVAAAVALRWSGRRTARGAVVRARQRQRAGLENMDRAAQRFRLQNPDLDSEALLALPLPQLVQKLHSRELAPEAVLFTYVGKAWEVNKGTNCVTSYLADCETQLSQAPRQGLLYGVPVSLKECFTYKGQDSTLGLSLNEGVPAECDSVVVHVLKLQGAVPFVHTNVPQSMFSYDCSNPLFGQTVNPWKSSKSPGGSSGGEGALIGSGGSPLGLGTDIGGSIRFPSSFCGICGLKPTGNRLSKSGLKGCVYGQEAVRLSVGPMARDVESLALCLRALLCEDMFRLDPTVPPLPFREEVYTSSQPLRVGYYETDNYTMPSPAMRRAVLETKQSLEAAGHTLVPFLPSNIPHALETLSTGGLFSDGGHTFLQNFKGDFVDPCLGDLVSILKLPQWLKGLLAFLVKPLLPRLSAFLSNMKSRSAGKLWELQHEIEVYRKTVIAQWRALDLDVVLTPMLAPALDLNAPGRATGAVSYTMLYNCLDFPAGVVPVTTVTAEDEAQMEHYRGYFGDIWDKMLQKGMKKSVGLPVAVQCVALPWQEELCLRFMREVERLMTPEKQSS
Type: cell-based
Protocol: FAAH activity was assayed in whole cells using methods disclosed previously (Maccarone et al., 1998 J Biol. Chem. 273:32332 and Bisogno et al., 1997 J Biol. Chem. 272:3315). In addition to the cell lines described in Maccarone et al. and Bisogno et al., MCF7 (ATCC designation HTB-22) and T84 (ATCC designation CCL-248) cell lines were also used in these assays.
cDNA expression clone for human FAAH-1 (in pcDNA3 vector) (Genbank Accession U82535; obtained from Benjamin Cravatt, Scripps Research Institute, La Jolla, Calif.) was linearized by digestion with BglII (New England Biolabs) and transfected by calcium phosphate into human HeLa cells (ATCC catalog #CCL-2). […] Following transfection, a stable HeLa-derived clone, designated 5c5, was isolated by single colony purification and expanded and maintained in modified Eagles medium (MEM; VWR catalog #45000-300) containing 10% fetal bovine serum (FBS), 2 mM L-glutamine, and 0.5 mg/mL G-418 (Sigma catalog #G5013).
Clone 5c5 (50,000 cells in 150 μL) was seeded into 96-well plates and incubated overnight (5% CO2, 37° C.). Media was carefully replaced with 180 μL DMEM/F12 medium (VWR catalog #45000-350) containing 15 mM HEPES, pH 7.4 and 0.1% fatty acid free BSA (Sigma catalog #A0281). Then, 2 μL of 100× desired final concentrations of certain exemplary compounds described herein were made up in DMSO, added to wells containing cells, and plates were incubated at 37° C. for 10 min. Next, 20 μL of 5 μM anandamide (Cayman catalog #90050) spiked with 8 μCi of anandamide-(ethanolamine-1-[^3H]) (American Radiolabeled Chemicals, Inc., catalog #ART 626) was added to the cells and the plates were incubated for an additional 15 min at 37° C. The reactions were terminated by chilling the plates on ice and adding 20 μL of 0.5M of potassium phosphate buffer (adjusted to pH 2.1 with phosphoric acid).
The acidified reactions were transferred to 96-well filter plates (0.25 mL capacity/well, 1.2 micron glass fiber pre-filter packed above 0.65 micron pore-size PVDF membrane, Millipore catalog MSFCN6B50) containing 25 μL charcoal (neutral activated carbon, Fisher Scientific catalog C170-500) per well. Prior to the assay, charcoal was measured and loaded onto the plate using an aluminum 96-well column loading device (Millipore catalog MACL09625). The filter plate was assembled over an empty 96-well plate (Costar) using a centrifuge alignment frame (Millipore catalog MACF09604) to allow for collection of the filtrate in the receiver plate. The charcoal glass-fiber filter plates were pre-washed with methanol by centrifugation 650×g for 10 min). Next, 80 μL of water was added to the wells of the pre-washed 96 well charcoal filter plate. Then, 90 μL of the acidified reaction mixture was added to the water in the wells of the charcoal plate. The samples were centrifuged as above. The substrate remained bound to the charcoal, whereas the [^3H]-ethanolamine product formed flowed through and was transferred to the microplates containing scintillation cocktail and quantified in a micro-plate scintillation counter (Perkin-Elmer Microbeta). Control reactions with either no cells or cells treated with DMSO alone were performed in triplicate and used to define background (no cells) and 100% activity (DMSO alone).
Following subtraction of background radioactivity, data were expressed as percent inhibition relative to 100% activity and fit with a nonlinear regression curve using GraphPad Prism Software (GraphPad Software Inc). IC50 values were calculated from the resulting dose-response curves constrained at top and bottom to 100% and 0%, respectively.

Row | Structure (SMILES) | IC50
1 | COc1cc(NC(=O)C(=O)c2c(C)n(Cc3ccc(Cl)cc3)c3ccc(OC(C)=O)cc23)ccn1 [Compound 1, 1-(4-chlorobenzyl)-3-(2-(2-methoxypyridin-4-ylamino)-2-oxoacetyl)-2-methyl-1H-indol-5-yl acetate] | < 100 nM
2 | COc1cc(NC(=O)C(=O)c2c(C)n(Cc3ccc(Cl)cc3)c3ccc(O)cc23)ccn1 [Compound 2, 2-(1-(4-chlorobenzyl)-5-hydroxy-2-methyl-1H-indol-3-yl)-N-(2-methoxypyridin-4-yl)-2-oxoacetamide] | < 100 nM
3 | COc1cc(NC(=O)C(=O)c2c(C)n(Cc3ccc(Cl)cc3)c3ccc(C(C)=O)cc23)ccn1 [Compound 5, 2-(5-acetyl-1-(4-chlorobenzyl)-2-methyl-1H-indol-3-yl)-N-(2-methoxypyridin-4-yl)-2-oxoacetamide] | < 100 nM
4 | COc1cc(NC(=O)C(=O)c2c(C)n(Cc3ccc(Cl)cc3)c3ccc(C(=O)N(C)C)cc23)ccn1 [Compound 6, 1-(4-chlorobenzyl)-3-(2-(2-methoxypyridin-4-ylamino)-2-oxoacetyl)-N,N,2-trimethyl-1H-indole-5-carboxamide] | 100 to 1000 nM
5 | COc1cc(NC(=O)C(=O)c2c(C)n(Cc3ccc(Cl)cc3)c3ccc(N(C)C(=O)OC(C)(C)C)cc23)ccn1 [Compound 7, Tert-butyl(1-(4-chlorobenzyl)-3-(2-((2-methoxypyridin-4-yl)amino)-2-oxoacetyl)-2-methyl-1H-indol-5-yl)(methyl)carbamate] | 100 to 1000 nM
6 | COc1cc(NC(=O)C(=O)c2c(C)n(Cc3ccc(Cl)cc3)c3ccc(CO)cc23)ccn1 [Compound 8, 2-(1-(4-chlorobenzyl)-5-(hydroxymethyl)-2-methyl-1H-indol-3-yl)-N-(2-methoxypyridin-4-yl)-2-oxoacetamide] | < 100 nM
7 | CNc1ccc2c(c1)c(C(=O)C(=O)Nc1ccnc(OC)c1)c(C)n2Cc1ccc(Cl)cc1 [Compound 9, 2-(1-(4-chlorobenzyl)-2-methyl-5-(methylamino)-1H-indol-3-yl)-N-(2-methoxypyridin-4-yl)-2-oxoacetamide] | < 100 nM
8 | COc1cc(NC(=O)C(=O)c2c(C)n(Cc3ccc(Cl)cc3)c3ccc(COC(C)=O)cc23)ccn1 [Compound 10, (1-(4-chlorobenzyl)-3-(2-(2-methoxypyridin-4-ylamino)-2-oxoacetyl)-2-methyl-1H-indol-5-yl)methyl acetate] | < 100 nM
9 | COCc1ccc2c(c1)c(C(=O)C(=O)Nc1ccnc(OC)c1)c(C)n2Cc1ccc(Cl)cc1 [Compound 11, 2-(1-(4-chlorobenzyl)-5-(methoxymethyl)-2-methyl-1H-indol-3-yl)-N-(2-methoxypyridin-4-yl)-2-oxoacetamide] | < 100 nM
10 | COc1ccc2c(c1)c(C(=O)C(=O)Nc1ccnc(OC)c1)c(C)n2Cc1cnc(Cl)cn1 [Compound 12, 2-(1-((5-chloropyrazin-2-yl)methyl)-5-methoxy-2-methyl-1H-indol-3-yl)-N-(2-methoxypyridin-4-yl)-2-oxoacetamide] | < 100 nM
11 | COc1cc(NC(=O)C(=O)c2c(C)n(Cc3ncc(Cl)cc3Cl)c3cc(F)c(OC)cc23)ccn1 [Compound 13, 2-(1-((3,5-dichloropyridin-2-yl)methyl)-6-fluoro-5-methoxy-2-methyl-1H-indol-3-yl)-N-(2-methoxypyridin-4-yl)-2-oxoacetamide] | < 100 nM
12 | COc1cc(NC(=O)C(=O)c2c(C)n(Cc3ccc(F)cc3F)c3cc(F)c(OC)cc23)ccn1 [Compound 14, 2-(1-(2,4-difluorobenzyl)-6-fluoro-5-methoxy-2-methyl-1H-indol-3-yl)-N-(2-methoxypyridin-4-yl)-2-oxoacetamide] | < 100 nM
13 | COc1cc(NC(=O)C(=O)c2c(C)n(Cc3ccc(Cl)cc3)c3ccc(C#N)cc23)ccn1 [Compound 15, 2-(1-(4-chlorobenzyl)-5-cyano-2-methyl-1H-indol-3-yl)-N-(2-methoxypyridin-4-yl)-2-oxoacetamide] | < 100 nM
14 | COc1ccc2c(c1)c(C(=O)C(=O)Nc1ccnc(OC)c1)c(C)n2Cc1ccncc1 [Compound 16, 2-(5-methoxy-2-methyl-1-(pyridin-4-ylmethyl)-1H-indol-3-yl)-N-(2-methoxypyridin-4-yl)-2-oxoacetamide] | < 100 nM
15 | COc1cc(NC(=O)C(=O)c2c(C)n(Cc3ccc(Cl)cc3)c3ccc(N(C)C)cc23)ccn1 [Compound 17, 2-(1-(4-chlorobenzyl)-5-(dimethylamino)-2-methyl-1H-indol-3-yl)-N-(2-methoxypyridin-4-yl)-2-oxoacetamide] | < 100 nM
16 | COc1cc(NC(=O)C(=O)c2c(C)n(Cc3ccc(Cl)cc3)c3ccc(Br)cc23)ccn1 [Compound 18, 2-(5-bromo-1-(4-chlorobenzyl)-2-methyl-1H-indol-3-yl)-N-(2-methoxypyridin-4-yl)-2-oxoacetamide] | < 100 nM
17 | COc1cc(NC(=O)C(=O)c2c(C)n(Cc3ccc(Cl)cc3)c3ccc([N+](=O)[O-])cc23)ccn1 [Compound 19, 2-(1-(4-chlorobenzyl)-2-methyl-5-nitro-1H-indol-3-yl)-N-(2-methoxypyridin-4-yl)-2-oxoacetamide] | < 100 nM
18 | COc1cc(NC(=O)C(=O)c2c(C)n(Cc3ccc(Cl)cc3)c3ccc(N)cc23)ccn1 [Compound 20, 2-(5-amino-1-(4-chlorobenzyl)-2-methyl-1H-indol-3-yl)-N-(2-methoxypyridin-4-yl)-2-oxoacetamide] | < 100 nM
19 | COc1cc(NC(=O)C(=O)c2c(C)n(Cc3ccc(Cl)cc3)c3ccc(C(F)(F)F)cc23)ccn1 [Compound 21, 2-(1-(4-chlorobenzyl)-2-methyl-5-(trifluoromethyl)-1H-indol-3-yl)-N-(2-methoxypyridin-4-yl)-2-oxoacetamide] | < 100 nM
20 | COc1cc(NC(=O)C(=O)c2c(C)n(Cc3ccc(Cl)cc3)c3ccc(NC(C)=O)cc23)ccn1 [Compound 22, 2-(5-acetamido-1-(4-chlorobenzyl)-2-methyl-1H-indol-3-yl)-N-(2-methoxypyridin-4-yl)-2-oxoacetamide] | < 100 nM
21 | COc1cc(NC(=O)C(=O)c2c(C)n(Cc3ccc(Cl)cc3)c3ccc(OC(F)(F)F)cc23)ccn1 [Compound 23, 2-(1-(4-chlorobenzyl)-2-methyl-5-(trifluoromethoxy)-1H-indol-3-yl)-N-(2-methoxypyridin-4-yl)-2-oxoacetamide] | < 100 nM
22 | CCN(CC)c1ccc2c(c1)c(C(=O)C(=O)Nc1ccnc(OC)c1)c(C)n2Cc1ccc(Cl)cc1 [Compound 24, 2-(1-(4-chlorobenzyl)-5-(diethylamino)-2-methyl-1H-indol-3-yl)-N-(2-methoxypyridin-4-yl)-2-oxoacetamide] | 100 to 1000 nM
23 | CNCc1ccc2c(c1)c(C(=O)C(=O)Nc1ccnc(OC)c1)c(C)n2Cc1ccc(Cl)cc1 [Compound 25, 2-(1-(4-chlorobenzyl)-2-methyl-5-((methylamino)methyl)-1H-indol-3-yl)-N-(2-methoxypyridin-4-yl)-2-oxoacetamide] | 100 to 1000 nM
